{"source": "patent US20240390346A1", "about": "“COMPOSITIONS FOR A DIETARY SUPPLEMENT TO MANAGE SENESCENT CELLS” (Neurohacker Collective, LLC, priority 2023, published 2024)", "origin": "cited, not measured here"}
{"tested_on": "senescent cells", "conditions": "literature studies"}
{"smiles": "O=c1c(O)c(-c2ccc(O)c(O)c2)oc2cc(O)cc(O)c12", "note": "[quercetin]", "senolytic / senomorphic activity": "both senolytic and senomorphic"}
{"smiles": "O=c1cc(-c2ccc(O)c(O)c2)oc2cc(O)cc(O)c12", "note": "[Luteolin]", "senolytic / senomorphic activity": "senolytic activity"}
{"smiles": "COc1cc(/C=C/C(=O)N2CCC=CC2=O)cc(OC)c1OC", "note": "[Piperlongumine]", "senolytic / senomorphic activity": "senolytic activity"}
{"smiles": "O=c1c(O)c(-c2ccc(O)c(O)c2)oc2cc(O)ccc12", "note": "[Fisetin]", "senolytic / senomorphic activity": "both senolytic and senomorphic activity"}
